Data published in PMC3134853, “In Vitro and In Vivo Study of Poly(ethylene glycol) Conjugated Ibuprofen to Extend the Duration of Action” (Scientia Pharmaceutica, 2011).
Converted amounts (≈) assume the structure as drawn. Read-outs that look alike come from different tables or passages of the source.

Assays:
[1] = oral administration; cited from earlier work
[2] = test system: acetic acid induced writhing in mice; experiment: Writhing induced by acetic acid (analgesic activity); type: in vivo, Swiss albino mice; conditions: oral, 3 h prior to acetic acid, Ibuprofen 20 mg/kg or molecular equivalent dose of conjugate
Description: Analgesic activity was carried out by using acetic acid induced writhing method in Swiss albino mice (25–30 g) of either sex. A 1% v/v solution of acetic acid was used to induce writhing. Test compounds were administered orally 3 h prior to acetic acid injection. Number of writhing for 10 min in control and test compounds were counted and compared. […] Acetic acid was administered intraperitoneally 1 ml/100 g body weight of the animal. Analgesic activity was measured as percent decrease in writhing in comparison to control. The percent Inhibition was calculated using the following equation: % Inhibition = 100 − number of writhings in test/number of writhings in control×100
Analgesic activity was carried out by using acetic acid induced writhing method in Swiss albino mice (25–30 g) of either sex. A 1% v/v solution of acetic acid was used to induce writhing. Test compounds were administered orally 3 h prior to acetic acid injection.

[3] = cited from earlier work
[4] = test system: carrageenan-induced paw edema in rats; experiment: Carrageenan-induced paw edema (anti-inflammatory activity); type: in vivo; conditions: Wistar rats, oral, mean ± SEM
Description: All the animals were obtained from the animal house of the Department of Pharmacology, […] College of Pharmacy, Mandsaur and its animal facility is approved by […]. No. 918/ac/05/CPCSEA). The experimental protocols for the same have been approved by Institutional Animal Ethics Committee. The analgesic activity was carried out on Swiss albino mice by the Siegmund et al. method; anti-inflammatory activity of the compounds was carried out on Wistar rats by the Winter et al. method. The anti-inflammatory activity was evaluated using carrageenan-induced paw edema on rat method. To evaluate the anti-inflammatory activity of the conjugates 4 groups (n = 6) of Wistar rats (150-200 g) were examined. […] A stock solution of 0.2, 0.52 and 2.14 mg ml^-1 was prepared as a homogeneous suspension in aqueous solution of sodium CMC (0.5% w/v) and each animal received 2.0- 2.2 ml of the respective drugs orally. Thirty minutes after administration of drugs, each rat received a subplanter injection of 0.1 ml of 1% carrageenan solution in its left hind paw. The swelling volume of the paw was measured before (time 0) and at 0.5, 1, 2, 3, 4, 24 h after the carrageenan injection. The measurement of the hind paw volume was carried out using an Ugo Basile Plethysmometer before any treatment (Vo) and in any interval (Vt) after the administration of the drugs. The percentage increase in the paw volume was calculated from the normal paw volume. The percentage of swelling inhibition was calculated using: Inhibition (%) = (Vt - Vo)control - (Vt - Vo)treated/(Vt - Vo)×100 (Vt and Vo relates to the average volume in the hind paw of the rats (n = 6) before any treatment and after anti-inflammatory agent treatment, respectively.

[5] = Determination of drug solubility (distilled water and phosphate buffer pH 7.4); type: physicochemical; conditions: UV 222 nm
Description: This suspension was stirred at room temperature for 24 hours with a Rota spin test tube Roter. After that the containers (test tubes) were left overnight for saturation. Then these saturated solutions were centrifuged at 10000 rpm the help of macro centrifuge and the supernatant was filtered via Whatman filter paper. The concentration of Ibuprofen was determined spectrophotometrically at 222 nm.

Structure (SMILES): CC(C)Cc1ccc(C(C)C(=O)O)cc1 (centres unmarked) [Ibuprofen, 2-(4-iso-butylphenyl)-propanoic acid]
- Time to reach maximal plasma concentration [1]: ≤ 2 h
- Percent inhibition (decrease) in writhing number versus control [2]: 59.61%
- Solubility in water (in words) [3]: poorly soluble in water
- Paw edema volume ([4]; 1 hr, the values are: paw edema volume): 0.33 ± 0.013 mL
- Paw edema volume ([4]; 2 hr, the values are: paw edema volume): 0.48 ± 0.017 mL
- Paw edema volume ([4]; 3 hr, the values are: paw edema volume): 0.38 ± 0.013 mL
- Paw edema volume ([4]; 4 hr, the values are: paw edema volume): 0.24 ± 0.009 mL
- Paw edema volume ([4]; 8 hr, the values are: paw edema volume): 0.15 ± 0.01 mL
- Paw edema volume ([4]; 24 hr): 0.03 ± 0.013^ns
- solubility at 24 h ([5]; distilled water, room temperature, read-out: Solubility in distilled water): 10.6 µg/mL (≈ 51.2 µM)
- solubility at 24 h ([5]; phosphate buffer pH 7.4, room temperature, read-out: Solubility in phosphate buffer (pH 7.4)): 25.2 µg/mL (≈ 122 µM)
